Laboratory results from patent US10632181B2, “Composition, containing RGD motif-containing peptide or fragment thereof, for treating burns and glaucoma, alleviating skin wrinkles, and promoting hair growth” (HUONS CO., LTD., priority 2014, dated 2020).
Positions of bridges follow the written chain, without caps; N, C: chain ends. No end group written: not given here.

Key:
[1] = Hair growth test: body weight; type: in vivo; conditions: skin
Description: (§1) This test was conducted to assess the influence on hair growth of C57BL/6 mouse when 4 types of test substances, HU024 (SEQ ID NO:2), HU025 (SEQ ID NO:3), HU026 (SEQ ID NO:4), and HU027 (SEQ ID NO:5), were applied to the skin for 14 days.
(§2) The group design was set to negative control (sterile water for injection G1), test substance HU024 (SEQ ID NO:2) 20 ug/head/day (G2), test substance HU024 (SEQ ID NO:2) 60 ug/head/day (G3), test substance HU025 (SEQ ID NO:3) 20 ug/head/day (G4), test substance HU025 (SEQ ID NO:3) 60 ug/head/day (G5), test substance HU026 (SEQ ID NO:4) 20 ug/head/day (G6), test substance HU026 (SEQ ID NO:4) 60 ug/head/day (G7), test substance HU027 (SEQ ID NO:5) 20 ug/head/day (G8), test substance HU027 (SEQ ID NO:5) 60 ug/head/day (G9) and positive control minoxyl 3% (G10) administered groups. Each group had 10 animals.
(§3) After the animal was put under anesthesia using zoletil (1 mL/kg, i.p), the back of the animal was primarily shaved using a depilator, and Veet depilatory was evenly applied on the back. After about 5 minutes, the applied site was cleaned up using gauze moistened with sterile water for injection. Only animal whose shaved back was scarlet in color was used for group separation. The test substance was applied to the same site daily once per day, 7 times per week for 14 days, and the test substance was evenly applied to the shaved site (on the back) by rubbing with a glass rod about 10 times.
The test item was measurements of dead animal, general syndrome, weight change, hair growing area and hair weight, and comparison with negative control was conducted.
(§4) The measurement results were analyzed using SPSS (ver. 10.1K), Duncan t-test for weight changes was conducted through one-way analysis of variance, hair weight was compared between groups using Student's t-test, and hair growing area was compared between groups through nonparametric multiple comparison procedures Whitney-Mann methods. P<0.05 was determined to be statistically significant.

skin = conditions: in vivo
Description: Women aged 30-65 having wrinkles around eyes were tested. […] They had second and third visits at the interval of 2 weeks after the start of use, and at each visit, were required to respond to various types of assessment and investigation defined in the experiment.
Furthermore, safety assessment was performed, and for safety of clinical test product, in all subjects having used the test product at least once, abnormal responses found at the second week and fourth week after use and abnormal responses reported during the test period were all used as safety assessment data of the product.

[2] = tested on: glaucoma animal model having microbead-induced elevated intraocular pressure; assay: Glaucoma test: intraocular pressure; type: in vivo, mouse; conditions: 20 ug/ml applied to eye once daily
Description: For control drug, Taflotan eye drops (Santen Pharmaceutical Co., Ltd.) were used, and for test drug, Taflotan eye drops+HU024 (SEQ ID NO:2) (sample 1), HU024 (SEQ ID NO:2) (sample 2), HU025 (SEQ ID NO:3) (sample 3), HU026 (SEQ ID NO:4) (sample 4), and HU027 (SEQ ID NO:5) (sample 5) were used, and testing was performed on glaucoma animal model having microbead-induced elevated intraocular pressure. In experimental animal model, Rompun solution for injection and zoletil were mixed and used to put the experimental animal under anesthesia, topical anesthetic Alcaine was applied to eye, 1×106 microbead/mL 1 μL was injected into anterior chamber using micro glass needle to induce an increase in intraocular pressure for 2 weeks (IOVS 2011 Vol. 52 36-).
The control drug and 5 samples were provided to the experimental animal having the elevated intraocular pressure for 2 weeks, 5 samples were applied to eye once daily, comparative verification of efficacy was performed, and intraocular pressure reduction and optic nerve cell in the retina was observed through administration for 4 weeks.
The intraocular pressure was measured using a contact-type intraocular pressure meter Tono lab's tonometer TV02 model. […] In 5-7 days after fluorescent probe injection, the eye was enucleated and fixed in 4% paraformaldehyde at room temperature for 4 hours. The retina was separated from choroid of the fixed eye and mounted on a slide. In each experimental group slide, optic nerve cell expressing fluorescence was detected using fluorescence microscope, images were taken at a magnification of ×40 and ×200, and data was collected.

[3] = tested on: hair growth of C57BL/6 mouse; assay: Hair growth test: hair weight; type: in vivo
Description: as §1, §2, §3
The hair growing area (%) relative to the test substance-applied area was measured and determined, and Image analyzer program (Image Pro Plus ver. 6.3, Cybermetics, USA) was used to measure. It was measured on the 1st, 3rd, 7th, 10th and 14th days after test substance administration. Imaging was performed together with the measurements on the date when the hair area was measured. On the next day after the end of application, the animals were killed by CO2 gas, and hair on the hair growing area was removed by a depilator and hair weight was measured.
as §4

[4] = tested on: 2-degree burns of male SD rats; assay: Burn treatment test: histopathology (H&E) of burn site; type: in vivo, SD (Sprague-Dawley) rats; conditions: score 0-4, 14th day after burn
Description: The experiment was carried out with 55 male SD (Sprague-Dawley) rats that were divided into […] groups: 5 rats for normal group (1 group, G1), 9-10 rats for negative control (1 group, G2), 30 rats for experimental group (3 groups, 10 rats in each group, G3, G4, G5), and 9-10 rats for positive control (1 group, G6). In the remaining groups except normal group, burned male SD rats was used for experiment. After SD rats were anesthesized, 2-degree burns, 2 cm in diameter, were induced on the SD rats using an aluminum electric soldering iron.
Test substance HU022 (SEQ ID NO:1) (G3, G4, G5), normal saline solution (G2) and Fiblast (G6) were applied to the skin of the burned male SD rats repeatedly once a day seven times a week for 7 days. Fiblast was applied to control group (G6) in 10 μg/dose/head, and the experimental group was divided into 3 groups and test substance was applied to each group in 3.3 μg/dose/head (G3), 10 μg/dose/head (G4), and 30 μg/dose/head (G5).
On the 14th day after burn, the burn site on the back was scraped from the dermis and fixed in 10% neutrally buffered formalin solution, and histopathology test was conducted through H&E staining.
With the measurement results, parametric comparison determined significance via Student's t-test and One-Way ANOVA, and significance testing relative to negative control was conducted. Furthermore, with the histopathology test results of burns, Kruskal-Wallis' H-test was conducted, and when significance between groups was identified, comparison between groups was performed through Mann-Whitney U-test. The computation program for statistics was SPSS 10.1 K. P<0.05 was determined to be statistically significant.

Substance: HU024 (RPTRGDCDLPEFCPG; disulfide 7-13; listed as Homo sapiens)
- BODY WEIGHTS ([1]; 20 ug/head/day, Day 1): 21.34 ± 0.60 g
- BODY WEIGHTS ([1]; 20 ug/head/day, Day 7): 22.64 ± 0.76 g
- BODY WEIGHTS ([1]; 20 ug/head/day, Day 11): 24.15 ± 0.86 g
- BODY WEIGHTS ([1]; 60 ug/head/day, Day 1): 21.54 ± 0.53 g
- BODY WEIGHTS ([1]; 60 ug/head/day, Day 7): 23.02 ± 0.74 g
- BODY WEIGHTS ([1]; 60 ug/head/day, Day 11): 24.30 ± 1.08 g
- abnormal response / skin irritation (skin): safe product not causing irritation to the skin
- intraocular pressure change [2]: A reduction in intraocular pressure was observed
- HAIR WEIGHTS ([3]; 20 ug/head/day for 14 days): 0.016 ± 0.003 g
- HAIR WEIGHTS ([3]; 60 ug/head/day for 14 days): 0.023 ± 0.008 g

Substance: HU022: polypeptide consisting of 452nd-509th amino acids of ADAM 15 (GenBank AAH14566.1), 58 amino acids; commercial product (EYEGENE Inc.)
- Epidermal regeneration ([4]; 3.3 μg/head/day): 0.1 ± 0.0 points
- Eschar ([4]; 3.3 μg/head/day): 4.0 ± 0.0 points
- Fibroplasia (connective tissue growth) ([4]; 3.3 μg/head/day): 3.1 ± 0.3 points
- Infiltration of Inflammatory cells ([4]; 3.3 μg/head/day): 3.0 ± 0.0 points
- Pilosebaceous (skin appendage regeneration) ([4]; 3.3 μg/head/day): 0.1 ± 0.3 points
- Epidermal regeneration ([4]; 10 μg/head/day): 0.6 ± 0.5 points
- Eschar ([4]; 10 μg/head/day): 3.2 ± 0.6 points
- Fibroplasia (connective tissue growth) ([4]; 10 μg/head/day): 3.0 ± 0.5 points
- Infiltration of Inflammatory cells ([4]; 10 μg/head/day): 3.0 ± 0.0 points
- Pilosebaceous (skin appendage regeneration) ([4]; 10 μg/head/day): 0.9 ± 1.1 points
- Epidermal regeneration ([4]; 30 μg/head/day): 0.6 ± 0.7 points
- Eschar ([4]; 30 μg/head/day): 2.7 ± 0.7 points
- Fibroplasia (connective tissue growth) ([4]; 30 μg/head/day): 3.3 ± 0.5 points
- Infiltration of Inflammatory cells ([4]; 30 μg/head/day): 3.0 ± 0.0 points
- Pilosebaceous (skin appendage regeneration) ([4]; 30 μg/head/day): 1.1 ± 1.0 points
